Measurements: paper PMC11990670, “Exploring the Volatility, Phase Transitions, and Solubility Properties of Five Halogenated Benzaldehydes” (Molecules, 2025)
Marks after values point to notes of the source that are not given here.

Test: Vapor pressures of crystalline and liquid phases, static method with capacitance diaphragm gauge
Format: physicochemical
From the text: A previously described and tested static apparatus was used to measure the vapor pressures of the condensed phases (both crystalline and liquid) of the five compounds studied. This installation employs MKS capacitance diaphragm absolute gauges, operating at self-regulated constant temperatures. Our lab is equipped with three pressure gauges. Gauge I, a Baratron 631A01TBEH (MKS instruments, Andover, MA, USA) (Tgauge = 423 K), measures pressures in the range of 0.5 to 1.3 × 10^2 Pa and operates within a temperature range of 253 to 413 K. Gauge II, the instrument used in this study, is a Baratron 631A11TBFP (MKS instruments, Andover, MA, USA) (Tgauge = 473 K), capable of measuring pressures from 0.5 to 1.3 × 10^3 Pa within a temperature range of 253 to 433 K and gauge III, a Baratron 631D02T8FP (MKS instruments, Andover, MA, USA) (Tgauge = 473 K), designed to measure pressures between 0.5 Pa and 2.6 × 10^2 Pa, also within a temperature range of 253 to 433 K. The temperatures of the samples were measured using a Pt100 platinum resistance thermometer, calibrated by comparison with a standard platinum resistance thermometer (SPRT: Tinsley Precision Instruments Ltd, London, England). To prevent vapor condensation, the tubing connecting the cell containing the condensed sample to the pressure gauge is maintained at a temperature higher than that of the sample but lower than that of the gauge. The uncertainty in temperature measurements is estimated to be u(T/K) = ±0.01, and the expanded uncertainties (0.95 confidence level, k = 2) in pressure measurements are given by the expression U(p/Pa) = 0.1 + 0.0050 (p/Pa) for the gauge used. Samples were thoroughly degassed before starting the vapor pressure measurements, ensuring consistent readings at specific temperatures and eliminating any residual volatile substances, including water.

- vapor pressure p (crystalline phase, T = 292.72 K): 0.50 Pa
- vapor pressure p (crystalline phase, T = 294.67 K): 0.63 Pa
- vapor pressure p (crystalline phase, T = 296.72 K): 0.81 Pa
- vapor pressure p (crystalline phase, T = 298.56 K): 1.00 Pa
- vapor pressure p (crystalline phase, T = 300.60 K): 1.28 Pa
- vapor pressure p (crystalline phase, T = 302.53 K): 1.58 Pa
- vapor pressure p (crystalline phase, T = 304.58 K): 1.97 Pa
- vapor pressure p (crystalline phase, T = 306.53 K): 2.49 Pa
- vapor pressure p (crystalline phase, T = 308.53 K): 3.07 Pa
- vapor pressure p (crystalline phase, T = 310.48 K): 3.74 Pa
- vapor pressure p (crystalline phase, T = 312.49 K): 4.61 Pa
- vapor pressure p (crystalline phase, T = 314.41 K): 5.68 Pa
- vapor pressure p (crystalline phase, T = 316.45 K): 7.02 Pa
- vapor pressure p (crystalline phase, T = 318.40 K): 8.62 Pa
- vapor pressure p (crystalline phase, T = 320.45 K): 10.52 Pa
- vapor pressure p (crystalline phase, T = 322.40 K): 12.77 Pa
- vapor pressure p (crystalline phase, T = 324.42 K): 15.66 Pa
- vapor pressure p (crystalline phase, T = 326.34 K): 18.87 Pa
- vapor pressure p (crystalline phase, T = 328.34 K): 22.67 Pa
- vapor pressure p (crystalline phase, T = 330.30 K): 27.33 Pa
- vapor pressure p (crystalline phase, T = 332.29 K): 32.89 Pa
- vapor pressure p (crystalline phase, T = 334.27 K): 39.51 Pa
- vapor pressure p (crystalline phase, T = 336.23 K): 46.91 Pa
- vapor pressure p (crystalline phase, T = 338.20 K): 56.28 Pa
- vapor pressure p (liquid phase, T = 344.17 K): 91.46 Pa
- vapor pressure p (liquid phase, T = 346.13 K): 103.7 Pa
- vapor pressure p (liquid phase, T = 348.09 K): 118.4 Pa
- vapor pressure p (liquid phase, T = 350.07 K): 133.6 Pa
- vapor pressure p (liquid phase, T = 352.10 K): 151.3 Pa
- vapor pressure p (liquid phase, T = 354.09 K): 168.0 Pa
- vapor pressure p (liquid phase, T = 356.04 K): 190.2 Pa
- vapor pressure p (liquid phase, T = 358.03 K): 212.4 Pa
- vapor pressure p (liquid phase, T = 359.98 K): 239.9 Pa
- vapor pressure p (liquid phase, T = 361.98 K): 266.2 Pa
- vapor pressure p (liquid phase, T = 363.92 K): 297.7 Pa
- vapor pressure p (liquid phase, T = 365.92 K): 333.0 Pa
- vapor pressure p (liquid phase, T = 367.87 K): 372.6 Pa
- vapor pressure p (liquid phase, T = 369.87 K): 415.4 Pa
- vapor pressure p (liquid phase, T = 371.82 K): 456.8 Pa
- vapor pressure p (liquid phase, T = 373.82 K): 506.8 Pa
- vapor pressure p (liquid phase, T = 375.77 K): 559.6 Pa
- vapor pressure p (liquid phase, T = 377.79 K): 620.3 Pa
- vapor pressure p (liquid phase, T = 379.71 K): 682.3 Pa
- vapor pressure p (liquid phase, T = 381.71 K): 755.4 Pa
- vapor pressure p (liquid phase, T = 383.62 K): 827.1 Pa
- vapor pressure p (supercooled liquid, T = 334.28 K): 48.38 ^d Pa
- vapor pressure p (supercooled liquid, T = 335.87 K): 53.45 ^d Pa
- vapor pressure p (supercooled liquid, T = 338.22 K): 62.48 ^d Pa
- vapor pressure p (supercooled liquid, T = 340.16 K): 71.24 ^d Pa
- vapor pressure p (supercooled liquid, T = 342.24 K): 81.73 ^d Pa
Structure (SMILES): O=Cc1c(Cl)cccc1Cl [2,6-Dichlorobenzaldehyde]
